Measured values as given in US5935861A, “Diazonium ion assay reagents and methods for their use” (priority 1997, dated 1999).

Type: physicochemical
Description: . An exemplary synthesis is the synthesis of 2-methyl-3-nitroaniline diazonium ion (2). In this embodiment, 2-methyl-3-nitroaniline (1) is converted to the diazonium ion (2) by reaction with sodium nitrite in an acidic aqueous medium. The reaction is illustrated in Scheme I below. The 2-methyl-3-nitroaniline diazonium ion (2) is capable of reacting with bilirubin to form a detectable product, and is thus useful in assays for detecting and quantitating bilirubin in a sample. […]

Cc1c(N)cccc1[N+](=O)[O-] [2-methyl-3-nitroaniline]
solubility in water or other aqueous systems (in words): good solubility in aqueous systems
